In patent US20080175872A1, “Controlled Release Dosage Form Containing Lercanidipine and a Performance-enhancing Acid” (OSMOTICA CORP., priority 2006, published 2008):
“And” between values parts separate entries of the source, which are not always exact repeats. Equal entries are not always repeated.

Key:
[1] = oral administration of an immediate release form; cited from earlier work
[2] = cited from earlier work
[3] = Stability of lercanidipine HCl polymorph II alone or 1/1 with organic acid, impurities by HPLC; assay type: physicochemical
Method: Analytical testing of the different samples was done by HPLC, column RP18, 300×3.9 mm ID, particle size 4 μm, in acetonitrile-0.15 M sodium perchlorate buffer, pH 3.0, at a flow rate of 1.3 ml/min, at 30° C., detector UV 240 nm. In all cases impurities were reported as % of the area of the impurity peak referred to the area of the main peak (a/a). The lercanidipine is the lercanidipine HCl polymorph II. […] The lercanidipine is the lercanidipine HCl polymorph II.

[4] = 50° C., 1.5 month, closed vials

COC(=O)C1=C(C)NC(C)=C(C(=O)OC(C)(C)CN(C)CCC(c2ccccc2)c2ccccc2)C1c1cccc([N+](=O)[O-])c1 (centres unmarked) [Lercanidipine, methyl 1,1,N-trimethyl-N-(3,3-diphenylpropyl)-2-aminoethyl 1,4-dihydro-2,6-dimethyl-4-(3-nitrophenyl)pyridine-3,5-dicarboxylate]
peak plasma level (Tmax) [1]: 1 to 3 h
permeability classification as defined by the FDA [2]: low permeable drug
solubility in gastrointestinal pH range ([2]; pH range of 1 to 8): essentially insoluble
Impurity 3 ([3]; 5° C. (reference condition)): 0.18 % a/a and 0.27 % a/a
Impurity B ([3]; 5° C. (reference condition)): 0.02 % a/a and 0.01 % a/a
Maximum unknown impurities ([3]; 5° C. (reference condition)): 0.04 % a/a
Impurity 3 ([3]; 50° C. + 75% RH): 0.28 % a/a and 0.16 % a/a
Impurity B ([3]; 50° C. + 75% RH): 0.01 % a/a
Maximum unknown impurities ([3]; 50° C. + 75% RH): 0.05 % a/a and 0.04 % a/a
Total impurities ([3]; 50° C. + 75% RH): 0.43 % a/a and 0.34 % a/a
Impurity 3 [3, 4]: 0.22 % a/a and 0.30 % a/a
Impurity B [3, 4]: 0.01 % a/a
Maximum unknown impurities [3, 4]: 0.03 % a/a and 0.04 % a/a
Total impurities [3, 4]: 0.31 % a/a and 0.47 % a/a
